Measured values published in patent publication US6974870B2, “Substituted 3-amino-thieno [2,3-b]pyridine-2-carboxylic acid amide compounds and processes for preparing and their uses” (Boehringer Ingelheim Phamaceuticals, Inc., priority 2002, dated 2005).

What follows are compounds tested against T1, human IKKβ (Homo sapiens, UniProt O14920) (assay: IKKβ kinase inhibition assay (phosphorylation of IκBα substrate, 33P-ATP)). Details: flag-tagged human IKKβ 0.9 μg/ml, GST-IκBα (1-54) 53 μg/ml, 250 nM ATP, 1 hour at 25° C.
T1 construct: FLAG (N)
T1 sequence (O14920 1-756): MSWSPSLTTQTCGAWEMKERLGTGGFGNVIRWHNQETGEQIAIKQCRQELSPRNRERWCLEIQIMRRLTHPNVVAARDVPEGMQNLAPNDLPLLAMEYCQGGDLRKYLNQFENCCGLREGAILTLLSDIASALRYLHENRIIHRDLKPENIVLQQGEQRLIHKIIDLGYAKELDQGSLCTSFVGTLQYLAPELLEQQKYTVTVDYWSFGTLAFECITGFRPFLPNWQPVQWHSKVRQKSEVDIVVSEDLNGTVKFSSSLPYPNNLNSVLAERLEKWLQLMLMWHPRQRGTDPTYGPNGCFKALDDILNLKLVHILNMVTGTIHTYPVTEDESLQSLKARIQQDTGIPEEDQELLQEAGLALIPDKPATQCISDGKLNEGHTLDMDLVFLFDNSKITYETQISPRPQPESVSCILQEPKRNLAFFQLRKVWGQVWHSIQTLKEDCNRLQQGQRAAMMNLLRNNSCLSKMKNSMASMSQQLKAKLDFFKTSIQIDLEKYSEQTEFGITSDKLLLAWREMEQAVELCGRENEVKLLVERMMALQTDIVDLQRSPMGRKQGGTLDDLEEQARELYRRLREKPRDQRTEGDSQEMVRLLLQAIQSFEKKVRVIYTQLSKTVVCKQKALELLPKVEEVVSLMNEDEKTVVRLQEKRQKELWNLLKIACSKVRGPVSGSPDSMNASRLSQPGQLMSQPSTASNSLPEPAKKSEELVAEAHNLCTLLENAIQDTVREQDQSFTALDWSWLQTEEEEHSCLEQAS
Type: biochemical
Protocol: The inhibition of IKKα and IKKβ by the compounds of the present invention was determined with the following assay that measures the phosphorylation of the IκBα substrate by the respective kinases. The enzymes used in the assay were N-terminally flag-tagged versions of the human IKKβ or IKKα and the substrate was a GST fusion protein with IκBα (amino acids 1-54).
The reaction mixtures (60 μl) contained 20 mM HEPES pH 7.5, 10 mM MgCl2, 2 mM MnCl2, 100 mM NaCl, 100 μM Na3VO4, 20 mM β-glycerophosphate, 1 mM DTT, 2% DMSO, 250 nM ATP, 0.4 nM [^33P]ATP (specific activity, 3000 Ci/mmol), IκBα substrate, IKK enzyme and test compound. The reaction mixtures contained either 3.6 μg/ml IKKα and 245 μg/ml IκBα or 0.9 μg/ml IKKβ and 53 μg/ml IκBα.
Reactions were initiated by adding a solution of IκBα substrate and ATP to polypropylene plates containing IKK enzyme that was pre-incubated for 5 minutes with test compound. Then the reaction mixtures were incubated for 1 hour at 25° C., placed on ice and quenched by the addition of 150 μl 10% trichloroacetic acid and 5% disodium pyrophosphate. After mixing, the entire contents of the quenched reaction mixtures were transferred to a pre-wetted Packard UniFilter filtration plate, aspirated and washed 6 times with 250 μl of ddH2O using the Packard Filtermate Harvester. Filtration plates were then air dried, supplemented with 40 μl of Microscint 20 scintillation fluid and the ^33P-labeled reaction products were quantified using the Packard TopCount scintillation counter.
Compounds were tested in three-fold serial dilutions and inhibitor concentrations to achieve 50% inhibition of enzyme activity (i.e., IC50) were derived from dose-reponse curves using SAS software (SAS Institute, Cary N.C.). A non-linear regression analysis based on the Hill equation was applied to the percent inhibition versus concentration data. In all cases, compound concentrations were verified by HPLC.

Structure (SMILES) | IC50 [nM]
CCCc1cc(N2CCC(NCC(O)c3ccc(-c4cnccn4)cc3)CC2)nc2sc(C(N)=O)c(N)c12 (stereo not shown) [3-Amino-6-{4-[2-hydroxy-2-(4-pyrazin-2-yl-phenyl)-ethylamino]-piperidin-1-yl}-4-propyl-thieno[2,3-b] pyridine-2-carboxylic acid amide] | < 1000
CCCc1cc(N2CCC(NC[C@@H](O)COc3ccccc3)CC2)nc2sc(C(N)=O)c(N)c12 [3-Amino-6-[4-((R)-2-hydroxy-3-phenoxy-propylamino)-piperidin-1-yl]-4-propyl-thieno[2,3-b] pyridine-2-carboxylic acid amide] | < 1000
CCCc1cc(N2CCC(NCC(O)COc3cccc(C#N)c3)CC2)nc2sc(C(N)=O)c(N)c12 (stereo not shown) [3-Amino-6-{4-[3-(3-cyano-phenoxy)-2-hydroxy-propylamino]-piperidin-1-yl}-4-propyl-thieno[2,3-b] pyridine-2-carboxylic acid amide] | < 1000
CCCc1cc(N2CCC(NCC(O)c3ccc(-c4ccccn4)cc3)CC2)nc2sc(C(N)=O)c(N)c12 (stereo not shown) [3-Amino-6-{4-[2-hydroxy-2-(4-pyridin-2-yl-phenyl)-ethylamino]-piperidin-1-yl}-4-propyl-thieno[2,3-b] pyridine-2-carboxylic acid amide] | < 1000
CCCc1cc(N2CCC(NCC(O)COc3ccc(F)cc3)CC2)nc2sc(C(N)=O)c(N)c12 (stereo not shown) [3-Amino-6-{4-[3-(4-fluoro-phenoxy)-2-hydroxy-propylamino]-piperidin-1-yl}-4-propyl-thieno[2,3-b] pyridine-2-carboxylic acid amide] | < 1000
NC(=O)c1sc2nc(N3CCC(NCCO)CC3)cc(C(F)(F)F)c2c1N [3-Amino-6-[4-(2-hydroxy-ethylamino)-piperidin-1-yl]-4-trifluoromethyl-thieno[2,3-b]pyridine-2-carboxylic acid amide] | < 1000
CCCc1cc(N2CCC(NCCc3ccc(C(N)=O)cc3)CC2)nc2sc(C(N)=O)c(N)c12 [3-Amino-6-{4-[2-(4-carbamoyl-phenyl)-ethylamino]-piperidin-1-yl}-4-propyl-thieno[2,3-b] pyridine-2-carboxylic acid amide] | < 1000
CCCc1cc(N2CCC(NCC(O)CNc3cccc(C(N)=O)c3)CC2)nc2sc(C(N)=O)c(N)c12 (stereo not shown) [3-Amino-6-{4-[3-(3-carbamoyl-phenylamino)-2-hydroxy-propylamino]-piperidin-1-yl}-4-propyl-thieno[2,3-b] pyridine-2-carboxylic acid amide] | < 1000
CCCc1cc(N2CCC(NCC(O)Cc3cccc(C(N)=O)c3)CC2)nc2sc(C(N)=O)c(N)c12 (stereo not shown) [3-Amino-6-{4-[3-(3-carbamoyl-phenyl)-2-hydroxy-propylamino]-piperidin-1-yl}-4-propyl-thieno[2,3-b] pyridine-2-carboxylic acid amide] | < 1000
CCCc1cc(N2CCC(NCC(O)CCc3ccccc3)CC2)nc2sc(C(N)=O)c(N)c12 (stereo not shown) [3-Amino-6-[4-(2-hydroxy-4-phenyl-butylamino)-piperidin-1-yl]-4-propyl-thieno[2,3-b] pyridine-2-carboxylic acid amide] | < 1000
NC(=O)c1sc2nc(N3CCC(NCC(O)c4ccc(-c5ccncc5)cc4)CC3)cc(C(F)(F)F)c2c1N (stereo not shown) [3-Amino-6-{4-[2-hydroxy-2-(4-pyridin-4-yl-phenyl)-ethylamino]-piperidin-1-yl}-4-trifluoromethyl-thieno[2,3-b]pyridine-2-carboxylic acid amide] | < 1000
NC(=O)c1sc2nc(N3CCC(NCC(O)c4ccc(-c5ccccn5)cc4)CC3)cc(C(F)(F)F)c2c1N (stereo not shown) [3-Amino-6-{4-[2-hydroxy-2-(4-pyridin-2-yl-phenyl)-ethylamino]-piperidin-1-yl}-4-trifluoromethyl-thieno[2,3-b]pyridine-2-carboxylic acid amide] | < 1000
CCCc1cc(N2CCC(NCC(=O)Nc3ccccc3C(N)=O)CC2)nc2sc(C(N)=O)c(N)c12 [3-Amino-6-(4-{[(2-carbamoyl-phenylcarbamoyl)-methyl]-amino}-piperidin-1-yl)-4-propyl-thieno[2,3-b] pyridine-2-carboxylic acid amide] | < 1000
NC(=O)c1sc2nc(N3CCC(NCC(O)c4ccc(-c5ccccc5)cc4)CC3)cc(C(F)(F)F)c2c1N (stereo not shown) [3-Amino-6-[4-(2-biphenyl-4-yl-2-hydroxy-ethylamino)-piperidin-1-yl]-4-trifluoromethyl-thieno[2,3-b]pyridine-2-carboxylic acid amide] | < 1000
CCCc1cc(N2CCC(NCC(O)CNc3ccccc3)CC2)nc2sc(C(N)=O)c(N)c12 (stereo not shown) [3-Amino-6-[4-(2-hydroxy-3-phenylamino-propylamino)-piperidin-1-yl]-4-propyl-thieno[2,3-b] pyridine-2-carboxylic acid amide] | < 1000
CCCc1cc(N2CCC(NCC(O)COc3cccc4ccccc34)CC2)nc2sc(C(N)=O)c(N)c12 (stereo not shown) [3-Amino-6-{4-[2-hydroxy-3-(naphthalen-1-yloxy)-propylamino]-piperidin-1-yl}-4-propyl-thieno[2,3-b] pyridine-2-carboxylic acid amide] | < 1000
CCCc1cc(N2CCC(NCC(O)COc3cccc(OC)c3)CC2)nc2sc(C(N)=O)c(N)c12 (stereo not shown) [3-Amino-6-{4-[2-hydroxy-3-(3-methoxy-phenoxy)-propylamino]-piperidin-1-yl}-4-propyl-thieno[2,3-b] pyridine-2-carboxylic acid amide] | < 1000
CCCc1cc(N2CCC(NCC(O)C(=O)NCc3ccccc3)CC2)nc2sc(C(N)=O)c(N)c12 (stereo not shown) [3-Amino-6-[4-(2-benzylcarbamoyl-2-hydroxy-ethylamino)-piperidin-1-yl]-4-propyl-thieno[2,3-b] pyridine-2-carboxylic acid amide] | < 1000
NC(=O)c1sc2nc(N3CCC(NCC(O)c4ccc(-c5cccnc5)cc4)CC3)cc(C(F)(F)F)c2c1N (stereo not shown) [3-Amino-6-{4-[2-hydroxy-2-(4-pyridin-3-yl-phenyl)-ethylamino]-piperidin-1-yl}-4-trifluoromethyl-thieno[2,3-b]pyridine-2-carboxylic acid amide] | < 1000
CCCc1cc(N2CCC(NCC(O)COc3ccc4ccccc4c3)CC2)nc2sc(C(N)=O)c(N)c12 (stereo not shown) [3-Amino-6-{4-[2-hydroxy-3-(naphthalen-2-yloxy)-propylamino]-piperidin-1-yl}-4-propyl-thieno[2,3-b] pyridine-2-carboxylic acid amide] | < 1000
CCCc1cc(N2CCC(NCC(=O)Nc3cnc4ccccc4c3)CC2)nc2sc(C(N)=O)c(N)c12 | < 1000
CCCc1cc(N2CCC(NCC(O)c3ccc(-c4ccccc4)cc3)CC2)nc2sc(C(N)=O)c(N)c12 (stereo not shown) [3-Amino-6-[4-(2-biphenyl-4-yl-2-hydroxy-ethylamino)-piperidin-1-yl]-4-propyl-thieno[2,3-b] pyridine-2-carboxylic acid amide] | < 1000
CCCc1cc(N2CCC(NCC(O)COCc3ccccc3)CC2)nc2sc(C(N)=O)c(N)c12 (stereo not shown) [3-Amino-6-[4-(3-benzyloxy-2-hydroxy-propylamino)-piperidin-1-yl]-4-propyl-thieno[2,3-b] pyridine-2-carboxylic acid amide] | < 1000
CC(C)(C)c1cc(N2CCC(N)CC2)nc2sc(C(N)=O)c(N)c12 [3-Amino-6-(4-amino-piperidin-1-yl)-4-tert-butyl-thieno[2,3-b] pyridine-2-carboxylic acid amide] | < 1000
CCCc1cc(N2CCC(NC[C@H](O)COc3ccccc3)CC2)nc2sc(C(N)=O)c(N)c12 [3-Amino-6-[4-((S)-2-hydroxy-3-phenoxy-propylamino)-piperidin-1-yl]-4-propyl-thieno[2,3-b] pyridine-2-carboxylic acid amide] | < 1000
